Experiment: gradient 5% acetonitrile 3 min, to 50% in 2 min, to 85% in 15 min, held 3 min, 100 µL/min
Conditions: column: Zorbax Extend-C18 2.1 x 50 mm; eluents: water / acetonitrile, 0.1% formic acid
Method in brief: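 The system's dead and dwell volumes were 40 μL and 900 μL, with a Zorbax Extend-C18 column (2.1 × 50 mm, 1.8 μm) run at 100 μL/min in water and acetonitrile containing 0.1% formic acid each. Pure standards were analyzed in mixtures of ~100 molecules by HPLC–quadrupole time-of-flight mass spectrometry in positive and negative ionization mode. Retention time was assigned from computationally picked, manually inspected adduct peaks.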

Compound | RP-LC retention time
O=C(NCC1CCCO1)c1cn(-c2ccccc2)nc1-c1ccccc1 (stereo not given) | 916 s
CS(=O)(=O)N1CCC(Cc2ccc(C(=O)O)cc2)CC1 | 728 s
COC(=O)c1[nH]c2c(c1C)C(=O)CC(c1ccccc1)C2 (stereo not given) | 860 s
Cc1nc(CCNC(=O)C2CCN(S(=O)(=O)c3ccc(F)c(F)c3)CC2)cs1 | 724 s
CCCN1CCCCc2cc(C(=O)NC)sc21 | 861 s
Cc1cnc(C(=O)N2CCC(N3C(=O)C4(CCCC4)C3c3scnc3C)CC2)cn1 (stereo not given) | 681 s
O=C(NCc1ccc2c(c1)OCO2)c1nnc(-c2ccc(S(=O)(=O)N3CCCCC3)cc2)o1 | 948 s
Cc1ccc2nc(C3CN(C(=O)c4c(-c5ccccc5Cl)noc4C)C3)[nH]c2c1 | 598 s
CCc1nc2c(c(=O)n1CC(=O)NC1CCCCC1)CN(Cc1ccccc1)CC2 | 652 s
CC(Cc1cccs1)NC(=O)CCS(=O)(=O)c1ccccc1 (stereo not given) | 746 s
N#Cc1ccccc1NC(=O)C(=O)NCC1CCN(C(=O)c2ccccc2F)CC1 | 744 s
CCc1ccc(NC(=O)C2CCN(C(=O)C3Sc4ccccc4NC3=O)CC2)cc1 (stereo not given) | 760 s
Cc1cc(C)n(-c2ccnc(N3CCC(C(N)=O)CC3)n2)n1 | 586 s
CCOC(=O)c1ccc(NC(=O)CN2CCC(C)CC2)cc1 | 561 s
COc1ccc(CCNS(=O)(=O)c2c(N)n(C)c(=O)n(C)c2=O)cc1OC | 605 s
COc1ccc(C(C)NC(=O)c2cc(NC(C)=O)cc3nc(C)ccc23)cc1 (stereo not given) | 618 s
O=C(c1ccc(C(F)(F)F)cc1)N1CCc2nc(-c3ccc(Cl)cc3)ncc2C1 | 1170 s
Cc1nnc(N2CCCC(C(=O)NCc3ccccc3Cl)C2)c2nn(-c3ccccc3)c(C)c12 (stereo not given) | 759 s
COC(=O)c1ccc2c(=O)n(-c3cc(F)cc(F)c3)c(N3CCCCC3)nc2c1 | 1180 s
O=C(c1cc(-c2ccncc2)n[nH]1)N1CCCC(C(=O)N2CCc3ccccc3C2)C1 (stereo not given) | 608 s
COc1ccc(N2CCN(c3cc(SCC(=O)Nc4ccccc4F)ncn3)CC2)cc1 | 1030 s
CCOC(=O)c1[nH]c(C)c(CCC(=O)N2CCCC(C(=O)N3CCCCCC3)C2)c1C (stereo not given) | 800 s
c1cc(OCc2ccc(CC3CCN(C4CCOCC4)CC3)cc2)ccn1 | 548 s

Compound | RP-LC retention time
CCc1cc(C2CCCN2C(=O)Nc2ccc(Cl)cc2)on1 (stereo not given) | 890 s
Cc1nc(-c2nc(-c3cccs3)cs2)cn1CC(=O)NCc1ccccc1 | 760 s
CCCCc1nnc2sc(COc3ccc(C)c(C)c3)nn12 | 1120 s
COc1ccc(CN2CC(=O)N(c3cccc(C)c3)[C@@H]3CS(=O)(=O)C[C@@H]32)cc1 | 788 s
Cc1oc2c(c1C(=O)N(C)C)CN(S(=O)(=O)Cc1ccccc1)CC2 | 740 s
CCOc1ccc(-c2csc(NC(=O)CCCOc3ccccc3C)n2)cc1 | 1240 s
O=C(C1CCCN(S(=O)(=O)N2CCCCC2)C1)N1CCN(Cc2ccc3c(c2)OCO3)CC1 (stereo not given) | 679 s
CN(CCc1noc(COc2ccc(Cl)cc2)n1)C(=O)c1ccco1 | 856 s
COCc1nncn1C1CCN(C(=O)c2cc(F)cc(F)c2)CC1 | 628 s
CCc1ccc(OCc2nc(CC(=O)Nc3nc(-c4ccc(C)cc4)cs3)cs2)cc1 | 1270 s
O=C(Nc1cccc(-c2cn3cccnc3n2)c1)c1cccc([N+](=O)[O-])c1 | 687 s
CCOC(=O)c1c[nH]c2c(C(=O)OCC)cccc2c1=O | 735 s
COc1ccc(NC(=O)CSc2nccc3c2ccn3C)c(OC)c1 | 687 s
CCc1nc2cc(N3CCC(C(=O)NCc4ccc5c(c4)OCO5)CC3)cnc2nc1CC | 799 s
COc1ccc(OC)c(NC(=O)Cn2c(=O)c(CCC(=O)NCC(C)C)nc3ccccc32)c1 | 798 s
OCCN(Cc1ccccc1)CC(O)COc1ccc(Cl)cc1Cl (stereo not given) | 602 s
O=C(c1cc(-c2ccncc2)n[nH]1)N1CCC(C(=O)N2CCN(c3ccc(Cl)cc3)CC2)CC1 | 672 s
CCc1ccc(-c2noc(Cn3nc(-c4ccc5c(c4)OCO5)ccc3=O)n2)cc1 | 1200 s
O=C1CCCc2cc(S(=O)(=O)N3CCC(C(=O)N4CCCCCC4)CC3)ccc2N1 | 716 s
Cc1cc(=O)oc2c(C)c(OCC(O)CN3CCN(c4ccccn4)CC3)ccc12 (stereo not given) | 572 s
Cc1nc2c(NC(=O)NCc3ccccc3)cccn2n1 | 707 s
COc1cccc(-n2cc(-c3nc(-c4ccccn4)no3)c3ccccc3c2=O)c1 | 966 s
O=C(NCCc1csc(-c2ccccc2)n1)C1CCN(C(=O)c2ccc(F)c(F)c2)CC1 | 816 s

Compound | RP-LC retention time
O=C(NCc1ccc2c(c1)OCO2)C(=O)c1cccn1Cc1ccccc1 | 980 s
CCc1sc(NC(=O)Cc2ccc(F)cc2)nc1-c1ccccc1 | 1110 s
Cc1ccc(CNC(=O)N2CCN(CCn3c(C(F)(F)F)nc4cccnc43)CC2)cc1 | 661 s
CCOC(=O)c1ccc(NC(=O)N2CCC(n3c(C(F)(F)F)nc4cccnc43)CC2)cc1 | 920 s
Cn1c(=O)n(C)c2cc(CNc3ccc(Cl)cc3Cl)ccc21 | 1070 s
Cc1cc(C)n(-c2cc(N3CCCC3)ncn2)n1 | 764 s
COc1ccccc1CNC(=O)c1sc(-c2cn(C(C)C)c3ncccc23)nc1C | 1030 s
O=C(c1ccoc1)N1[C@H]2CC[C@@H]1c1cnc(-c3ccccc3)nc1C2 | 837 s
CCn1cc(CN2CCC(C(=O)NCc3cccc(Cl)c3)CC2)c2cc(OC)ccc21 | 744 s
Cc1cccc(Cl)c1S(=O)(=O)Nc1ccc2c(c1)CCC(=O)N2C | 788 s
O=C(NCC1CCCO1)N1CC(c2nc(CCOCc3ccccc3)no2)C1 (stereo not given) | 713 s
Cc1cc(C)cc(C(=O)N2CCCC(C(=O)NC3CC3)C2)c1 (stereo not given) | 714 s
COc1ccc(-c2csc(NC3=NS(=O)(=O)c4ccccc43)n2)cc1 | 886 s
CCOC(=O)C(C)Oc1cccc2c(=O)n(CC(=O)NCc3ccco3)ccc12 (stereo not given) | 725 s
O=C(Cc1ccccc1F)N1CCc2cc(-c3ccno3)ccc21 | 961 s
O=C(Cn1cnc2c(nnn2-c2ccc(Br)cc2)c1=O)NCc1ccco1 | 776 s
Cc1ccc(NC(=O)N2CCC(n3cnc4c(C)cccc4c3=O)CC2)cc1C | 872 s
CC(=O)Nc1cccc(-c2nc(-c3ccc4c(c3)oc(=O)n4C)no2)c1 | 819 s
CN1C(=O)[C@H]2CN(Cc3cn[nH]c3-c3ccc(F)cc3)C[C@H]2C1=O | 575 s
CCCc1noc(-c2nnn3c2COC(c2ccc(F)cc2)C3)n1 (stereo not given) | 1040 s
Cc1nnc(N2CCC(C(=O)NCC3CCCO3)CC2)c2nn(-c3ccccc3)c(C)c12 (stereo not given) | 632 s
COCCN1C(=O)CN(Cc2ccc(C)cc2)C(=O)C1c1cccs1 (stereo not given) | 849 s
CCc1ccc(C(=O)c2cnc3ccc(OC)cc3c2N2CCN(C)CC2)cc1 | 614 s

Compound | RP-LC retention time
CC(C)CN(CC(C)C)c1nc(-c2ccc([N+](=O)[O-])cc2)nc2ccccc12 | 1250 s
Cc1nc2cc(-c3noc(-c4ccncc4)n3)ccc2n(C2CCCC2)c1=O | 1130 s
O=C(N[C@@H]1CN(c2ncccn2)C[C@H]1CO)c1ccc(F)cn1 | 595 s
Nc1cc(C2CCN(C(=O)c3cccc(F)c3)CC2)no1 | 658 s
Cc1c(Cl)cccc1NC(=O)CCCn1cccc1 | 868 s
Cc1nc(Cn2cccc2C(=O)NCc2ccc(Br)cc2)no1 | 942 s
COc1ccc(NC(=O)C2CCN(S(=O)(=O)c3cc(C(=O)N4CCCC4)cs3)CC2)cc1 | 760 s
COc1cc(CNC(=O)c2ccc(Cc3c(C)noc3C)o2)cc(OC)c1OC | 744 s
Cc1ccc(-c2cn3cc(C(=O)NC(C)c4cccnc4)ccc3n2)cc1C (stereo not given) | 585 s
CC(C)NC(=O)N1CCOc2ccccc21 | 774 s
COC(=O)c1ccc(NC(=O)C(=O)NCC2CCN(Cc3cccs3)CC2)cc1 | 567 s
O=C(C1=CN(c2ccc3c(c2)OCCO3)c2cc(F)ccc2S1(=O)=O)N1CCCC1 | 735 s
COc1ccc(NC(=O)c2nc3nc(C)cc(C(F)F)n3n2)cc1Cl | 813 s
Cc1ccc(-c2csc(NC(=O)COc3cc(C)cc(C)c3)n2)cc1 | 1270 s
Cc1oc(-c2ccc(NC(=O)COc3ccccc3)cc2)nc1Cn1cccn1 | 887 s
Cc1cc(-c2nnc(-c3ccccc3)o2)c(C)n1CC(=O)NC1CCCCC1 | 883 s
CC1CCCCN1CCCNC(=O)C1CCCN(c2ncnc3c2nc2n3CCCCC2)C1 (stereo not given) | 589 s
Cc1ccc(-c2[nH]ncc2CN2CCC3(CCC3O)CC2)cc1 (stereo not given) | 577 s
Cn1nc2n(c1=O)CCC(NS(=O)(=O)c1cccnc1)CC2 (stereo not given) | 579 s
Cc1cccc(-c2noc(CSc3nccn3-c3ccccc3)n2)c1 | 969 s
O=C(NCc1ccco1)C1CCN(Cc2cc3ccccc3n2Cc2ccc(Cl)cc2)CC1 | 783 s
